In US20240417410A1, “TRICYCLIC COMPOUNDS FOR THE TREATMENT OF CANCER” (Hoffmann-La Roche Inc., priority 2023, published 2024):
Like-named read-outs stand apart in the source and are kept apart here.

Key:
Assay in all cases: Cell proliferation, CTG 3D, 7 d
Format in all cases: cell-based
[1] = system: NCI-H2291; conditions: Homo sapiens
Procedure: (§1) On Day-1, cells were plated in 384-well round-bottom ultra-low adhesion plates (cat. Corning 3830, with cell density adjusted according to Table 3. The assay plate was then centrifuged at 1000 rpm for 1 minute to ensure even distribution of cells. The plate was incubated at 37° C. in a 5% CO2 atmosphere (It is worth noting that for SW1271 cell plate, it needs to be incubated in an incubator without additional CO2).
(§2) On Day 0, Example 24 or A122 was added to each well using a Tecan HP D300E dispenser, with a 3-fold dilution across 9 doses. The final concentration of DMSO was normalized to 0.2%. The assay plate was then centrifuged at 1000 rpm for 1 minute and incubated for 7 days.
(§3) On Day 7, CellTiter-Glo (CTG) 3D reagent (Promega G9683) was dispensed into each well of a 384-well plate using a multi-drop dispenser (Thermo Scientific 66413). A liquid handling automation workstation (Bravo with a 384-well head) was used to mix the CTG reagents. Plates were left on a shaker for 30 minutes at 450 rpm, shielded from light.
(§4) For data analysis, the XL-fit software (Supplier: ID Business Solutions Ltd., Software version: XL fit 5.0) was utilized. The percentage of inhibition was calculated using the formula: Inhibition %=(Max-Sample value)/(Max-Min)×100. Curve fitting was performed as follows: For complete dose-response curves, the relative IC50 was reported from the fit. For incomplete curves, if minimal inhibition was greater than 50%, an IC50 less than the lowest compound concentration was reported. If minimal inhibition was between 20% and 50%, the bottom was locked at 0% and the IC50 was reported. If maximal inhibition was less than 50%, an IC50 greater than the highest compound concentration was reported.

[2] = system: NCI-H2122; conditions: Homo sapiens; NCI-H2122, KRAS (G12C)
Procedure: as §1, §2, §3, §4

[3] = system: MOLP8; conditions: Homo sapiens, MOLP-8
Procedure: as §1, §2, §3, §4

[4] = system: CFPAC-1; conditions: Homo sapiens; CFPAC-1, KRAS (G12V)
Procedure: as §1, §2, §3, §4

[5] = system: HepG2; conditions: Homo sapiens
Procedure: as §1, §2, §3, §4

[6] = system: HPAC; conditions: Homo sapiens, KRAS (G12D)
Procedure: as §1, §2, §3, §4

[7] = system: RD; conditions: Homo sapiens
Procedure: as §1, §2, §3, §4

[8] = system: LS513; conditions: Homo sapiens, LS-513; LS513, KRAS (G12D)
Procedure: as §1, §2, §3, §4

[9] = system: LS1034; conditions: Homo sapiens, LS-1034
Procedure: as §1, §2, §3, §4

[10] = system: SK-CO-1; conditions: Homo sapiens; SK-CO-1, KRAS (G12V)
Procedure: as §1, §2, §3, §4

[11] = system: HCT-15; conditions: Homo sapiens
Procedure: as §1, §2, §3, §4

[12] = system: LCLC-97TM1; conditions: Homo sapiens; LCLC-97TM1, KRAS (G12V)
Procedure: as §1, §2, §3, §4

[13] = system: SK-MEL-2; conditions: Homo sapiens
Procedure: as §1, §2, §3, §4

[14] = system: KNS-62; conditions: Homo sapiens
Procedure: as §1, §2, §3, §4

[15] = system: NCI-H650; conditions: Homo sapiens
Procedure: as §1, §2, §3, §4

[16] = system: THP-1; conditions: Homo sapiens; THP-1, NRAS (p.G12D)
Procedure: as §1, §2, §3, §4

[17] = system: GP5d; conditions: Homo sapiens, KRAS (G12D)
Procedure: as §1, §2, §3, §4

[18] = system: TYK-nu; conditions: Homo sapiens
Procedure: as §1, §2, §3, §4

[19] = system: SUM 159PT; conditions: Homo sapiens, HRAS (p.G12D)
Procedure: as §1, §2, §3, §4

[20] = system: NCI-H929; conditions: Homo sapiens
Procedure: as §1, §2, §3, §4

[21] = system: SW 837; conditions: Homo sapiens, SW837; SW 837, KRAS (G12C)
Procedure: as §1, §2, §3, §4

[22] = system: NCI-H2030; conditions: Homo sapiens; NCI-H2030, KRAS (G12C)
Procedure: as §1, §2, §3, §4

[23] = system: KP-2; conditions: Homo sapiens
Procedure: as §1, §2, §3, §4

[24] = system: AML-193; conditions: Homo sapiens
Procedure: as §1, §2, §3, §4

[25] = system: KMS26; conditions: Homo sapiens, KMS-26; KMS26, KRAS (WT ampl)
Procedure: as §1, §2, §3, §4

[26] = system: CHL1; conditions: Homo sapiens, CHL-1; CHL1, KRAS (WT ampl)
Procedure: as §1, §2, §3, §4

[27] = system: SW 480; conditions: Homo sapiens, SW480; SW 480, KRAS (G12V)
Procedure: as §1, §2, §3, §4

[28] = system: PL-21; conditions: Homo sapiens
Procedure: as §1, §2, §3, §4

CO[C@@H](C)c1ncc(N2CCN(C)CC2)cc1-c1c2c3cc(cc4c3n1CCC4)-c1csc(n1)C[C@H](NC(=O)[C@H]1[C@H](C)[C@@H]1C)C(=O)N1CCC[C@H](N1)C(=O)OCC(C)(C)C2 (atropisomer, axis not shown; (M)) [Example 24, (1r,2R,3S)-N-[(7S,13S)-(20M)-20-[2-[(1S)-1-methoxyethyl]-5-(4-methylpiperazin-1-yl)-3-pyridyl]-17,17-dimethyl-8,14-dioxo-15-oxa-4-thia-9,21,30,31-tetrazahexacyclo[23.3.1.1^2,5.1^9,13.0^19,27.0^21,26]hentriaconta-1 (28),2,5 (31), 19,25 (29),26-hexaen-7-yl]-2,3-dimethyl-cyclopropanecarboxamide]
IC50 ([1]; NCI-H2291, KRAS (G12F), read-out: IC50): 0.55 nM
IC50 [2]: 0.39 nM
IC50 ([3]; MOLP8, NRAS (p.Q61L), read-out: IC50): 11 nM
IC50 [4]: 0.54 nM
IC50 ([5]; HepG2, NRAS (p.Q61L), read-out: IC50): 2.1 nM
IC50 [6]: 0.31 nM
IC50 ([7]; NRAS (p.Q61H), read-out: IC50): 0.36 nM
IC50 [8]: 0.68 nM
IC50 ([9]; LS1034, KRAS (A146T), read-out: IC50): 12 nM
IC50 [10]: 0.18 nM
IC50 ([11]; HCT-15, KRAS (G13D), read-out: IC50): 100 nM
IC50 [12]: 0.092 nM
IC50 ([13]; SK-MEL-2, NRAS (p.Q61R), read-out: IC50): 2 nM
IC50 ([14]; KNS-62, HRAS (p.Q61L), read-out: IC50): 2.6 nM
IC50 [15]: 2.3 nM
IC50 [16]: 0.26 nM
IC50 [17]: 0.48 nM
IC50 ([18]; TYK-nu, NRAS (p.G12D and p.Q61K), read-out: IC50): 0.34 nM
IC50 [19]: 4.5 nM
IC50 ([20]; NCI-H929, NRAS (p.G13D), read-out: IC50): 7.3 nM
IC50 [21]: 0.22 nM
IC50 [22]: 0.34 nM
IC50 ([23]; KP-2, KRAS (G12R), read-out: IC50): 0.35 nM
IC50 ([24]; AML-193, NRAS (p.G13V), read-out: IC50): 1.1 nM
IC50 [25]: 50 nM
IC50 [26]: 8.1 nM
IC50 [27]: 1.2 nM
IC50 ([28]; PL-21, KRAS (A146V), read-out: IC50): 1 nM

CCn1c(-c2cc(N3CCN(C)CC3)cnc2[C@H](C)OC)c2c3cc(ccc31)-c1csc(n1)C[C@H](NC(=O)[C@H]1C[C@@H]1C)C(=O)N1CCC[C@H](N1)C(=O)OCC(C)(C)O2 [Example A122, reference compound]
IC50 ([1]; NCI-H2291): 1 nM
IC50 [2]: 0.62 nM
IC50 [3]: 22 nM
IC50 [4]: 1.1 nM
IC50 ([5]; HepG2): 5.5 nM
IC50 [6]: 0.3 nM
IC50 [7]: 0.7 nM
IC50 [8]: 0.47 nM
IC50 [9]: 7.3 nM
IC50 [10]: 0.33 nM
IC50 ([11]; HCT-15): 100 nM
IC50 [12]: 0.17 nM
IC50 ([13]; SK-MEL-2): 3 nM
IC50 ([14]; KNS-62): 6.4 nM
IC50 [15]: 9.6 nM
IC50 [16]: 0.18 nM
IC50 [17]: 0.41 nM
IC50 [18]: 0.68 nM
IC50 [19]: 3 nM
IC50 ([20]; NCI-H929): 8.7 nM
IC50 [21]: 0.67 nM
IC50 [22]: 0.56 nM
IC50 [23]: 0.43 nM
IC50 [24]: 2.1 nM
IC50 [25]: 48 nM
IC50 [26]: 9.3 nM
IC50 [27]: 2 nM
IC50 ([28]; PL-21): 2.1 nM
